Test results reported in patent publication US20170333591A9, “ABSORBENT ARTICLE COMPRISING MALODOR REDUCTION COMPOSITIONS” (The Procter & Gamble Company, priority 2014, published 2017).

test: Log of liquid dish neat product liquid-air partition coefficient; type: physicochemical; conditions: not given

Question: With `CNC(=O)C(C)(C(C)C)C(C)C` [Material 846] as the compound, how does the “Comment Code: Log of liquid dish neat product liquid-air partition coefficient” value (“Comment Code: Log” below) read?
Answer: The value was “K (Log of liquid dish neat product liquid-air partition coefficient greater than or equal to 7)”.

Question: Which “Comment Code: Log” value does the source give for `CCC(C)(C)C1CCC(O)CC1` (stereo not drawn) [Material 995] here?
Answer: Its value is “K (Log of liquid dish neat product liquid-air partition coefficient greater than or equal to 7)”.

Question: With `C=C1C2CCC(C2)C1(C)CCC=C(C)CO` (stereo not drawn) [Material 616] as the compound, how does the “Comment Code: Log” value read?
Answer: The value was “K (Log of liquid dish neat product liquid-air partition coefficient greater than or equal to 7)”.

Question: Which “Comment Code: Log” value does the source give for `CCOC(=O)OC1CCCCC1C(C)(C)C` (stereo not drawn) [Material 355] here?
Answer: The value was “K (Log of liquid dish neat product liquid-air partition coefficient greater than or equal to 7)”.

Question: Which “Comment Code: Log” value does the source give for `CC(C)=C1CCC2=CC(=O)CC(C)C2(C)C1` (stereo not drawn) [Material 684] here?
Answer: Its value is “K (Log of liquid dish neat product liquid-air partition coefficient greater than or equal to 7)”.

Question: Which “Comment Code: Log” value does the source give for `CC(C=O)=Cc1ccccc1` [Material 701] here?
Answer: Its value is “K (Log of liquid dish neat product liquid-air partition coefficient greater than or equal to 7)”.

Question: Which “Comment Code: Log” value does the source give for `CC(=O)CCc1ccccc1` [Material 640] here?
Answer: The value was “K (Log of liquid dish neat product liquid-air partition coefficient greater than or equal to 7)”.

Question: Which “Comment Code: Log” value does the source give for `CC(C)C(=O)OC1CC2CC1C1C=CCC21` (stereo not drawn) [Material 487] here?
Answer: Its value is “K (Log of liquid dish neat product liquid-air partition coefficient greater than or equal to 7)”.

Question: With `C=CCOCCc1ccccc1` [Material 744] as the compound, how does the “Comment Code: Log” value read?
Answer: The value was “K (Log of liquid dish neat product liquid-air partition coefficient greater than or equal to 7)”.

Question: For `C=C(C=O)C(C)CCC=C(C)C` (stereo not drawn) [Material 819], which “Comment Code: Log” value is on record?
Answer: Its value is “K (Log of liquid dish neat product liquid-air partition coefficient greater than or equal to 7)”.

Question: With `CC(=O)OC(C)(C)C1CC=C(C)CC1` (stereo not drawn) [Material 687] as the compound, how does the “Comment Code: Log” value read?
Answer: The value was “K (Log of liquid dish neat product liquid-air partition coefficient greater than or equal to 7)”.

Question: For `Cc1cc(O)cc(C)c1Cl` [Material 557], which “Comment Code: Log” value is on record?
Answer: Its value is “K (Log of liquid dish neat product liquid-air partition coefficient greater than or equal to 7)”.

Question: Which “Comment Code: Log” value does the source give for `CC1(C)C2=C(CO)CCC(C)(C)C23CCC1C3` (stereo not drawn) [Material 248] here?
Answer: Its value is “K (Log of liquid dish neat product liquid-air partition coefficient greater than or equal to 7)”.

Question: Which “Comment Code: Log” value does the source give for `C/C=C(\C)C(=O)OCC/C=C\CC` [Material 536] here?
Answer: Its value is “K (Log of liquid dish neat product liquid-air partition coefficient greater than or equal to 7)”.

Question: For `CC(=O)c1cc2c(cc1C)C(C)(C)C(C)C2(C)C` (stereo not drawn) [Material 927], which “Comment Code: Log” value is on record?
Answer: The value was “K (Log of liquid dish neat product liquid-air partition coefficient greater than or equal to 7)”.

Question: With `CCC(=O)OC(C)c1ccccc1` (stereo not drawn) [Material 96] as the compound, how does the “Comment Code: Log” value read?
Answer: The value was “K (Log of liquid dish neat product liquid-air partition coefficient greater than or equal to 7)”.

Question: Which “Comment Code: Log” value does the source give for `CC12CCCC(O)(C1)C1CC(C)(C)C1CC2` (stereo not drawn) [Material 574] here?
Answer: The value was “K (Log of liquid dish neat product liquid-air partition coefficient greater than or equal to 7)”.

same assay, conditions: Comment Code letters K and/or L

Question: With `COCc1ccc(O)c(OC)c1` [Material 1113] as the compound, how does the “Log of liquid dish neat product liquid-air partition coefficient (Comment Code K/L)” value (shortened to “Log … (Comment Code K/L)”) read?
Answer: Its value is “K (Log of liquid dish neat product liquid-air partition coefficient greater than or equal to 7)”.

Question: Which “Log … (Comment Code K/L)” value does the source give for `CC1CC(C)(c2ccccc2)OC(C)O1` (stereo not drawn) [Material 1126] here?
Answer: Its value is “K (Log of liquid dish neat product liquid-air partition coefficient greater than or equal to 7)”.

Question: With `CC(C=O)=CCC1C(C)=CCCC1(C)C` (stereo not drawn) [Material 1116] as the compound, how does the “Log … (Comment Code K/L)” value read?
Answer: The value was “K (Log of liquid dish neat product liquid-air partition coefficient greater than or equal to 7)”.

same assay, conditions: code letter within the Comment Code cell

Question: For `CC1/C=C/CCCCCCCCCCC(=O)C1` (stereo not drawn) [Material 80], which “Log … (Comment Code K/L)” value is on record?
Answer: The value was “K (Log of liquid dish neat product liquid-air partition coefficient greater than or equal to 7)”.

Question: For `C=CCCCCCCCCC(=O)OCC` [Material 381], which “Log … (Comment Code K/L)” value is on record?
Answer: Its value is “K (Log of liquid dish neat product liquid-air partition coefficient greater than or equal to 7)”.

Question: For `CCC(=O)OC1CC2CCC1(C)C2(C)C` (stereo not drawn) [Material 228], which “Log … (Comment Code K/L)” value is on record?
Answer: Its value is “K (Log of liquid dish neat product liquid-air partition coefficient greater than or equal to 7)”.

Question: With `CC(=O)/C=C/C1C(C)CCC(C)C1(C)C` (stereo not drawn) [Material 71] as the compound, how does the “Log … (Comment Code K/L)” value read?
Answer: Its value is “K (Log of liquid dish neat product liquid-air partition coefficient greater than or equal to 7)”.

Question: With `CCCCCCCCCC(C)C=O` (stereo not drawn) [Material 103] as the compound, how does the “Log … (Comment Code K/L)” value read?
Answer: Its value is “K (Log of liquid dish neat product liquid-air partition coefficient greater than or equal to 7)”.

Question: For `CC=Cc1ccc(OC)c(OC)c1` [Material 108], which “Log … (Comment Code K/L)” value is on record?
Answer: The value was “K (Log of liquid dish neat product liquid-air partition coefficient greater than or equal to 7)”.

Question: For `CC1=CCC(C(C)CC2CCCC2=O)CC1` (stereo not drawn) [Material 69], which “Log … (Comment Code K/L)” value is on record?
Answer: Its value is “K (Log of liquid dish neat product liquid-air partition coefficient greater than or equal to 7)”.

Question: Which “Log … (Comment Code K/L)” value does the source give for `CC(C)C(=O)OC1CC2CC1C1C=CCC21` (stereo not drawn) [Material 487] here?
Answer: The value was “K (Log of liquid dish neat product liquid-air partition coefficient greater than or equal to 7)”.

Question: For `CCCCCCCCCCCC(=O)OCC` [Material 391], which “Log … (Comment Code K/L)” value is on record?
Answer: The value was “K (Log of liquid dish neat product liquid-air partition coefficient greater than or equal to 7)”.

Question: Which “Log … (Comment Code K/L)” value does the source give for `CCCCCCCC(=O)OCc1ccco1` [Material 336] here?
Answer: Its value is “K (Log of liquid dish neat product liquid-air partition coefficient greater than or equal to 7)”.

Question: For `CC(O)C(C)Cc1ccccc1` (stereo not drawn) [Material 82], which “Log … (Comment Code K/L)” value is on record?
Answer: The value was “K (Log of liquid dish neat product liquid-air partition coefficient greater than or equal to 7)”.

Question: Which “Log … (Comment Code K/L)” value does the source give for `c1ccc(CCCc2ccccn2)cc1` [Material 497] here?
Answer: The value was “K (Log of liquid dish neat product liquid-air partition coefficient greater than or equal to 7)”.

Question: With `CC(=O)c1oc2ccccc2c1C` [Material 61] as the compound, how does the “Log … (Comment Code K/L)” value read?
Answer: The value was “K (Log of liquid dish neat product liquid-air partition coefficient greater than or equal to 7)”.

Question: For `CC(C)=CCCC(C)=CC1OCC(C)O1` (stereo not drawn) [Material 519], which “Log … (Comment Code K/L)” value is on record?
Answer: The value was “K (Log of liquid dish neat product liquid-air partition coefficient greater than or equal to 7)”.

same assay, conditions: code letters K/L of the Comment Code

Question: For `CCCCC/C=C/C=C\C(=O)OCC` [Material 942], which “Log of liquid dish neat product liquid-air partition coefficient (Comment Code)” value (“Log … (Comment Code)” below) is on record?
Answer: The value was “K (Log of liquid dish neat product liquid-air partition coefficient greater than or equal to 7)”.

Question: With `C=C1C2CCC(C2)C1(C)CCC=C(C)CO` (stereo not drawn) [Material 616] as the compound, how does the “Log … (Comment Code)” value read?
Answer: The value was “K (Log of liquid dish neat product liquid-air partition coefficient greater than or equal to 7)”.

Question: For `CC(=O)C=CC1C(C)=CCC(C)C1(C)C` (stereo not drawn) [Material 704], which “Log … (Comment Code)” value is on record?
Answer: The value was “K (Log of liquid dish neat product liquid-air partition coefficient greater than or equal to 7)”.

Question: With `CC(C)=C1CCC2=CC(=O)CC(C)C2(C)C1` (stereo not drawn) [Material 684] as the compound, how does the “Log … (Comment Code)” value read?
Answer: The value was “K (Log of liquid dish neat product liquid-air partition coefficient greater than or equal to 7)”.

Question: With `CC(C)=CCCC1=CCC(C#N)CC1` (stereo not drawn) [Material 660] as the compound, how does the “Log … (Comment Code)” value read?
Answer: The value was “K (Log of liquid dish neat product liquid-air partition coefficient greater than or equal to 7)”.

Question: With `CC(=O)c1cc2c(cc1C)C(C)(C)C(C)C2(C)C` (stereo not drawn) [Material 927] as the compound, how does the “Log … (Comment Code)” value read?
Answer: Its value is “K (Log of liquid dish neat product liquid-air partition coefficient greater than or equal to 7)”.

Question: For `C=CCc1ccc2c(c1)OCO2` [Material 1021], which “Log … (Comment Code)” value is on record?
Answer: Its value is “K (Log of liquid dish neat product liquid-air partition coefficient greater than or equal to 7)”.

Question: Which “Log … (Comment Code)” value does the source give for `CCC=C(C)C(O)CCCCC` (stereo not drawn) [Material 1104] here?
Answer: Its value is “K (Log of liquid dish neat product liquid-air partition coefficient greater than or equal to 7)”.

Question: For `CC(C)(C=O)CC1=CCC2CC1C2(C)C` (stereo not drawn) [Material 925], which “Log … (Comment Code)” value is on record?
Answer: The value was “K (Log of liquid dish neat product liquid-air partition coefficient greater than or equal to 7)”.

Question: With `CC1=CC(=O)CC(C)C12CCC(=C(C)C)C2` (stereo not drawn) [Material 610] as the compound, how does the “Log … (Comment Code)” value read?
Answer: The value was “K (Log of liquid dish neat product liquid-air partition coefficient greater than or equal to 7)”.

Question: With `CCCCCOC(=O)C=Cc1ccccc1` [Material 671] as the compound, how does the “Log … (Comment Code)” value read?
Answer: The value was “K (Log of liquid dish neat product liquid-air partition coefficient greater than or equal to 7)”.

Question: Which “Log … (Comment Code)” value does the source give for `C/C=C/c1cc(OC)c(OC)cc1OC` [Material 924] here?
Answer: The value was “K (Log of liquid dish neat product liquid-air partition coefficient greater than or equal to 7)”.

Question: For `CC(C)CCCC(C)CCCC(C)C=O` (stereo not drawn) [Material 741], which “Log … (Comment Code)” value is on record?
Answer: Its value is “K (Log of liquid dish neat product liquid-air partition coefficient greater than or equal to 7)”.

Question: For `CC12CCCC(O)(C1)C1CC(C)(C)C1CC2` (stereo not drawn) [Material 574], which “Log … (Comment Code)” value is on record?
Answer: Its value is “K (Log of liquid dish neat product liquid-air partition coefficient greater than or equal to 7)”.
